From ChEMBL document CHEMBL2016560, “Mannitol Bis-phosphate Based Inhibitors of Fructose 1,6-Bisphosphate Aldolases” (ACS Med Chem Lett, 2011)
pIC50: −log10 of the molar value. Active and inactive are the calls of the source. The calls are words filed in the database; no cut-off is given here.

Tests used:
[1] = target: T1, Fructose-bisphosphate aldolase, glycosomal (Trypanosoma brucei brucei) (UniProt P07752); assay: Competitive inhibition of His-tagged recombinant Trypanosoma brucei fructose bis-phosphate aldolase expressed in Escherichia coli by double-reciprocal plot analysis
T1 sequence (whole entry): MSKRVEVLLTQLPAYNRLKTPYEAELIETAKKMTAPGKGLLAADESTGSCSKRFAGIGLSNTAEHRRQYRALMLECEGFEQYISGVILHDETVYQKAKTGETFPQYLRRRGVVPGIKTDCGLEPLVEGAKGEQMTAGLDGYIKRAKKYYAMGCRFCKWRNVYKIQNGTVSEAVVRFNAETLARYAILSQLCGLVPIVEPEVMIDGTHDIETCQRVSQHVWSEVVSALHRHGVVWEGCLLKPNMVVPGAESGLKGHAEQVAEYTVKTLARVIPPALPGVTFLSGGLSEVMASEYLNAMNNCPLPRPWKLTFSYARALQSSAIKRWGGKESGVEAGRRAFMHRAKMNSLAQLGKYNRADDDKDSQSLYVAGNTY

[2] = target: T2, Fructose-bisphosphate aldolase A (Oryctolagus cuniculus, UniProt P00883); assay: Inhibition of rabbit muscle FBA assessed as inhibition of FBP cleavage by spectrophotometry
T2 sequence (P00883 whole entry): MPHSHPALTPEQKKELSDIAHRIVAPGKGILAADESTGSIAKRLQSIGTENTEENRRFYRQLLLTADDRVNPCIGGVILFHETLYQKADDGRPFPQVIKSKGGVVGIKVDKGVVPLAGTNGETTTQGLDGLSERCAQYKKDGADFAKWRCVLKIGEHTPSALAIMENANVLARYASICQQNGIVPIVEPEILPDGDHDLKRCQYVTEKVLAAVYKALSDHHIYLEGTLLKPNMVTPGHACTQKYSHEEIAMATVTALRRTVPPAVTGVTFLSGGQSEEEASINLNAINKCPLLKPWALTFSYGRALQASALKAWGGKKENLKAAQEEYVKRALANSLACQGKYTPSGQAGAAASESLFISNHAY

[3] = target: T3, Fructose-bisphosphate aldolase, glycosomal (Trypanosoma brucei brucei, UniProt P07752); assay: Inhibition of His-tagged recombinant Trypanosoma brucei fructose bis-phosphate aldolase expressed in Escherichia coli using FBP as substrate after 5 to 15 mins
T3 sequence (P07752 whole entry): T1 sequence (whole entry)

SMILES	inhibition mode (competitive) [1]	pIC50 [2]	pIC50 [3]
O=P(O)(O)OC[C@@H](O)[C@@H](O)[C@H](O)[C@@H](COP(=O)(O)O)OCCCc1ccccc1	Active	4.68	4.51
CCCCCO[C@H](COP(=O)(O)O)[C@@H](O)[C@H](O)[C@H](O)COP(=O)(O)O	Active	3.80	3.93
CO[C@H](COP(=O)(O)O)[C@@H](O)[C@H](O)[C@H](O)COP(=O)(O)O	Active	5.12	5.70
O=P(O)(O)OC[C@@H](O)[C@@H](O)[C@H](O)[C@H](O)COP(=O)(O)O		5.10	5.03
CCO[C@H](COP(=O)(O)O)[C@@H](O)[C@H](O)[C@H](O)COP(=O)(O)O	Active	4.19	4.29
O=P(O)(O)OC[C@@H](O)[C@@H](O)[C@H](O)[C@@](O)(CCCc1ccccc1)COP(=O)(O)O	Active	3.86	4.25

Second part, the compound after the results:

inhibition mode (competitive) [1]	pIC50 [2]	pIC50 [3]	SMILES
Active	4.77	4.82	CCCCC[C@@](O)(COP(=O)(O)O)[C@@H](O)[C@H](O)[C@H](O)COP(=O)(O)O
	4.89	5.00	O=C(COP(=O)(O)O)[C@@H](O)[C@H](O)[C@H](O)COP(=O)(O)O (mixture of isomers)
Active	3.61	3.89	CC[C@@](O)(COP(=O)(O)O)[C@@H](O)[C@H](O)[C@H](O)COP(=O)(O)O
